Counter-ions that a name gives are not always drawn.

The experiment deals with P. falciparum-infected RBCs. The experiment in a line: Glycolysis IC50 / lactate excretion assay in P. falciparum-infected RBCs. The experiment is classed as cell-based. The settings on record: Plasmodium falciparum. Here is the method:
The cultures were harvested and DNA quantitated using the standard Sybr Green I fluorescence assay. […] The culture medium was harvested and extracellular lactic acid was quantified by LC-MS.
P. falciparum (HB-3 strain) cultures were maintained in standard culture conditions. […] Parasites were grown in O+ donor blood, 2% hematocrit.
Parasite cultures were seeded in 96-well plates (1% hematocrit, 1-2% starting parasitemia, 100 μL total volume) with varying concentrations of the test compounds in a final concentration of 0.1% DMSO. Plates were cultured for 48 hours before harvesting the culture medium for LC-MS analysis. At harvest, thin smears were taken and examined microscopically to observe any alterations in parasite morphology.
Culture medium samples were diluted in 9 volumes of methanol containing U-^13C-glucose and 1-^13C-lactate (final concentration 0.25 mM each). The samples were clarified by centrifugation at 13,000 RCF for 10 minutes. […] Mobile phase A was acetonitrile, and mobile phase B was 20 mM ammonium acetate (pH 9.4).
The sample was analyzed on an Exactive mass spectrometer (Thermo Scientific) to determine the chromatographic peak areas the analytes and internal standards. Glucose and lactate were quantified by taking the ratio of the unlabeled peak area to the area of the isotope-labeled standard.
In general, IC50 refers to the concentration needed to halve the response being measured. For `CCC(CC)NC(=O)COc1cccc(-c2nc3c(c(Nc4ccc(-c5cn[nH]c5)cc4)n2)CN(C(C)=O)CC3)c1` [Example 45, 2-(3-(4-((4-(1H-pyrazol-4-yl)phenyl)amino)-6-acetyl-5,6,7,8-tetrahydropyrido[4,3-d]pyrimidin-2-yl)phenoxy)-N-(pentan-3-yl)acetamide], the IC50 is 10 to 100 nM.
Next, `CC(C)(C)CNC(=O)COc1cccc(-c2nc3c(c(Nc4ccc(-c5cn[nH]c5)cc4)n2)COCC3)c1` [Example 47, 2-(3-(4-((4-(1H-pyrazol-4-yl)phenyl)amino)-7,8-dihydro-5H-pyrano[4,3-d]pyrimidin-2-yl)phenoxy)-N-neopentylacetamide]: 10 to 100 nM.
For `CC(C)CNC(=O)COc1cccc(-c2nc(Nc3ccc(-c4cn[nH]c4)cc3)c3ncccc3n2)c1` [Example 14, 2-(3-(4-((4-(1H-pyrazol-4-yl)phenyl)amino)pyrido[3,2-d]pyrimidin-2-yl)phenoxy)-N-isobutylacetamide], the IC50 lay within 251 to 500 nM.
Molecule `O=C(COc1cccc(-c2nc3c(c(Nc4ccc(-c5cn[nH]c5)cc4)n2)COC3)c1)NC1CC(F)(F)C1` [Example 32, 2-(3-(4-((4-(1H-pyrazol-4-yl)phenyl)amino)-5,7-dihydrofuro[3,4-d]pyrimidin-2-yl)phenoxy)-N-(3,3-difluorocyclobutyl)acetamide] came in with an IC50 of 251 to 500 nM.
In the case of `CC(=O)N1Cc2nc(-c3cccc(OCC(=O)NC(C)(C)C)c3)nc(Nc3ccc(-c4cn[nH]c4)cc3)c2C1` [Example 56, 2-(3-(4-((4-(1H-pyrazol-4-yl)phenyl)amino)-6-acetyl-6,7-dihydro-5H-pyrrolo[3,4-d]pyrimidin-2-yl)phenoxy)-N-(tert-butyl)acetamide] it was 101 to 250 nM; in that of `CC(C)CNC(=O)COc1cccc(-c2nc(Nc3ccc(-c4cn[nH]c4)cc3)c3ncsc3n2)c1` [Example 25, 2-(3-(7-((4-(1H-pyrazol-4-yl)phenyl)amino)thiazolo[5,4-d]pyrimidin-5-yl)phenoxy)-N-isobutylacetamide], 251 to 500 nM.
Next, `O=C(COc1cccc(-c2nc(Nc3ccc(-c4cn[nH]c4)cc3)c3ncsc3n2)c1)NC1CCC1` [Example 23, 2-(3-(7-((4-(1H-pyrazol-4-yl)phenyl)amino)thiazolo[5,4-d]pyrimidin-5-yl)phenoxy)-N-cyclobutylacetamide]: 251 to 500 nM; `CC(=O)N1CCc2nc(-c3cccc(OCC(=O)NC(C)C)c3)nc(Nc3ccc(-c4cn[nH]c4)cc3)c2C1` [Example 44, 2-(3-(4-((4-(1H-pyrazol-4-yl)phenyl)amino)-6-acetyl-5,6,7,8-tetrahydropyrido[4,3-d]pyrimidin-2-yl)phenoxy)-N-isopropylacetamide]: 10 to 100 nM.
Next, `CC(C)(C)NC(=O)COc1cccc(-c2nc3c(c(Nc4ccc(-c5cn[nH]c5)cc4)n2)COC3)c1` [Example 26, 2-(3-(4-((4-(1H-pyrazol-4-yl)phenyl)amino)-5,7-dihydrofuro[3,4-d]pyrimidin-2-yl)phenoxy)-N-(tert-butyl)acetamide dihydrochloride]: 101 to 250 nM.
On to `O=C(COc1cccc(-c2nc(Nc3ccc(-c4cn[nH]c4)cc3)c3ccncc3n2)c1)NC1CCCC1` [Example 21, 2-(3-(4-((4-(1H-pyrazol-4-yl)phenyl)amino)pyrido[3,4-d]pyrimidin-2-yl)phenoxy)-N-cyclopentylacetamide], for which the IC50 lay in the range of 101 to 250 nM.
In the case of `CC(C)NC(=O)COc1cccc(-c2nc(Nc3ccc(-c4cn[nH]c4)cc3)c3cnn(C)c3n2)c1` [Example 16, 2-(3-(4-((4-(1H-pyrazol-4-yl)phenyl)amino)-1-methyl-1H-pyrazolo[3,4-d]pyrimidin-6-yl)phenoxy)-N-isopropylacetamide] it was 10 to 100 nM; in that of `Cn1ncc2c(Nc3ccc(-c4cn[nH]c4)cc3)nc(-c3cccc(OCC(=O)NC4CCCC4)c3)nc21` [Example 17, 2-(3-(4-((4-(1H-pyrazol-4-yl)phenyl)amino)-1-methyl-1H-pyrazolo[3,4-d]pyrimidin-6-yl)phenoxy)-N-cyclopentylacetamide], 101 to 250 nM; in that of `CCC(CC)NC(=O)COc1cccc(-c2nc3c(c(Nc4ccc(-c5cn[nH]c5)cc4)n2)COC3)c1` [Example 27, 2-(3-(4-((4-(1H-pyrazol-4-yl)phenyl)amino)-5,7-dihydrofuro[3,4-d]pyrimidin-2-yl)phenoxy)-N-(pentan-3-yl)acetamide dihydrochloride], 10 to 100 nM.
Next, `O=C(COc1cccc(-c2nc3c(c(Nc4ccc(-c5cn[nH]c5)cc4)n2)COC3)c1)NC1CCCC1` [Example 13]: 101 to 250 nM; `CC(C)(C)NC(=O)COc1cccc(-c2nc(Nc3ccc(-c4cn[nH]c4)cc3)c3cnccc3n2)c1` [Example 58, 2-(3-(4-((4-(1H-pyrazol-4-yl)phenyl)amino)pyrido[4,3-d]pyrimidin-2-yl)phenoxy)-N-(tert-butyl)acetamide]: 101 to 250 nM.
As for `CC(=O)N1Cc2nc(-c3cccc(OCC(=O)NC(C)C)c3)nc(Nc3ccc(-c4cn[nH]c4)cc3)c2C1` [Example 54, 2-(3-(4-((4-(1H-pyrazol-4-yl)phenyl)amino)-6-acetyl-6,7-dihydro-5H-pyrrolo[3,4-d]pyrimidin-2-yl)phenoxy)-N-isopropylacetamide], the IC50 is 501 to 1000 nM.
Next, `O=C(COc1cccc(-c2nc(Nc3ccc(-c4cn[nH]c4)cc3)c3sccc3n2)c1)NC1CC1` [Example 5]: 251 to 500 nM.
For `Cn1ncc2c(Nc3ccc(-c4cn[nH]c4)cc3)nc(-c3cccc(OCC(=O)NC4CCC4)c3)nc21` [Example 15, 2-(3-(4-((4-(1H-pyrazol-4-yl)phenyl)amino)-1-methyl-1H-pyrazolo[3,4-d]pyrimidin-6-yl)phenoxy)-N-cyclobutylacetamide], the IC50 fell in the range of 101 to 250 nM.
Regarding `CC(C)NC(=O)COc1cccc(-c2nc(Nc3ccc(-c4cn[nH]c4)cc3)c3ccncc3n2)c1` [Example 19, 2-(3-(4-((4-(1H-pyrazol-4-yl)phenyl)amino)pyrido[3,4-d]pyrimidin-2-yl)phenoxy)-N-isopropylacetamide], the IC50 was in the range of 101 to 250 nM.
Next, `CCC(CC)NC(=O)COc1cccc(-c2nc3c(c(Nc4ccc(-c5cn[nH]c5)cc4)n2)CN(C(C)=O)C3)c1` [Example 55, 2-(3-(4-((4-(1H-pyrazol-4-yl)phenyl)amino)-6-acetyl-6,7-dihydro-5H-pyrrolo[3,4-d]pyrimidin-2-yl)phenoxy)-N-(pentan-3-yl)acetamide]: 10 to 100 nM; `CCC(C)NC(=O)COc1cccc(-c2nc3c(c(Nc4ccc(-c5cn[nH]c5)cc4)n2)COC3)c1` (stereo not drawn) [Example 28, 2-(3-(4-((4-(1H-pyrazol-4-yl)phenyl)amino)-5,7-dihydrofuro[3,4-d]pyrimidin-2-yl)phenoxy)-N-(sec-butyl)acetamide]: 10 to 100 nM; `CCC(C)NC(=O)COc1cccc(-c2nc3c(c(Nc4ccc(-c5cn[nH]c5)cc4)n2)COCC3)c1` (stereo not drawn) [Example 41, 2-(3-(4-((4-(1H-pyrazol-4-yl)phenyl)amino)-7,8-dihydro-5H-pyrano[4,3-d]pyrimidin-2-yl)phenoxy)-N-(sec-butyl)acetamide]: 10 to 100 nM.
In the case of `CC(C)NC(=O)COc1cccc(-c2nc3c(c(Nc4ccc(-c5cn[nH]c5)cc4)n2)COC3)c1` [Example 2, 2-(3-(4-((4-(1H-pyrazol-4-yl)phenyl)amino)-5,7-dihydrofuro[3,4-d]pyrimidin-2-yl)phenoxy)-N-isopropylacetamide] it was 101 to 250 nM; in that of `O=C(COc1cccc(-c2nc(Nc3ccc(-c4cn[nH]c4)cc3)c3ncsc3n2)c1)NC1CCCC1` [Example 24, 2-(3-(7-((4-(1H-pyrazol-4-yl)phenyl)amino)thiazolo[5,4-d]pyrimidin-5-yl)phenoxy)-N-cyclopentylacetamide], 251 to 500 nM.
Next, `CC(C)NC(=O)COc1cccc(-c2nc3c(c(Nc4ccc(-c5cn[nH]c5)cc4)n2)COCC3)c1` [Example 40, 2-(3-(4-((4-(1H-pyrazol-4-yl)phenyl)amino)-7,8-dihydro-5H-pyrano[4,3-d]pyrimidin-2-yl)phenoxy)-N-isopropylacetamide]: 10 to 100 nM; `O=C(COc1cccc(-c2nc3c(c(Nc4ccc(-c5cn[nH]c5)cc4)n2)COCC3)c1)NC1CCC1` [Example 52, 2-(3-(4-((4-(1H-pyrazol-4-yl)phenyl)amino)-7,8-dihydro-5H-pyrano[4,3-d]pyrimidin-2-yl)phenoxy)-N-cyclobutylacetamide]: 101 to 250 nM; `CC(C)NC(=O)COc1cccc(-c2nc3c(c(Nc4ccc(-c5cn[nH]c5)cc4)n2)CN(C(=O)C(C)C)CC3)c1` [Example 1, 2-(3-(4-((4-(1H-pyrazol-4-yl)phenyl)amino)-6-isobutyryl-5,6,7,8-tetrahydropyrido[4,3-d]pyrimidin-2-yl)phenoxy)-N-isopropylacetamide]: 10 to 100 nM.
The molecule `Cn1cnc2c(Nc3ccc(-c4cn[nH]c4)cc3)nc(-c3cccc(OCC(=O)NC4CCC4)c3)nc21` [Example 11] returned an IC50 of 101 to 250 nM.
With `O=C(COc1cccc(-c2nc3c(c(Nc4ccc(-c5cn[nH]c5)cc4)n2)CSC3)c1)NC1CCCC1` [Example 36, 2-(3-(4-((4-(1H-pyrazol-4-yl)phenyl)amino)-5,7-dihydrothieno[3,4-d]pyrimidin-2-yl)phenoxy)-N-cyclopentylacetamide], the IC50 lay in the range of 501 to 1000 nM.
As to `O=C(COc1cccc(-c2nc(Nc3ccc(-c4cn[nH]c4)cc3)c3ccncc3n2)c1)NC1CCC1` [Example 20, 2-(3-(4-((4-(1H-pyrazol-4-yl)phenyl)amino)pyrido[3,4-d]pyrimidin-2-yl)phenoxy)-N-cyclobutylacetamide], the IC50 fell in the range of 101 to 250 nM.

The values are drawn from patent US10729691B2, “Treatment of infectious diseases with glucose uptake inhibitors” (Kadmon Corporation LLC, priority 2015, dated 2020).
